Key:
[1] = target: T1, IGF-1R (Homo sapiens, UniProt P08069); assay: Cellular IGF-1 Receptor ELISA; format: cell-based; details: 3T3/IGF-1R cells
T1 construct: expressed in transfected cells; host or cells: 3T3/IGF-1R cells (mouse 3T3 host)
Method: Cellular IGF-1 Receptor ELISA (Version I)
(1). The cell line used in this assay is 3T3/IGF-1R, a cell line which overexpresses IGF-1 Receptor.
(2). 3T3/IGF-1R is grown in an incubator with 5% CO2 at 37° C. The growth media is DMEM+10% FBS (heat inactivated)+2mM L-Glutamine.
(3). For ELISA plate coating, the anti-IGF-1R antibody named 17-69 is used. Antibodies are purified by the Enzymology Lab, SUGEN, Inc.
All the following steps are conducted at room temperature unless it is specifically indicated. All ELISA plate washings are performed by rinsing the plate with tap water three times, followed by one TBST rinse. Pat plate dry with paper towels.
(1). The cells, grown in tissue culture dish (10 cm, Corning 25020-100) to 80-90% confluence, are harvested with Trypsin-EDTA (0.25%, 0.5 ml/D-100, GIBCO).
(2). Resuspend the cells in fresh DMEM+10% FBS+2mM L-Glutamine, and transfer to 96-well tissue culture plate (Corning, 25806-96) at 20,000 cells/well (100 ul/well). Incubate for 1 day then replace medium to serum-free medium (90/ul) and incubate in 5% CO2 and 37° C. overnight.
(1). Coat the ELISA plate (Corning 25805-96) with Anti-IGF-1R Antibody at 0.5 ug/well in 100 ul PBS at least 2 hours.
(2). Remove the coating solution, and replace with 100 ul Blocking Buffer, and shake for 30 minutes. Remove the blocking buffer and wash the plate just before adding lysate.
(1). The drugs are tested in serum-free condition.
(2). Dilute drug stock (in 100% DMSO) 1:10 with DMEM in 96-well poly-propylene plate, and transfer 10 ul/well of this solution to the cells to achieve final drug dilution 1:100, and final DMSO concentration of 1.0%. Incubate the cells in 5% CO2 at 37° C. for 2 hours.
(3). Prepare fresh cell lysis buffer (HNTG HNTG 2 ml EDTA 0.1 ml Na3VO4 0.1 ml Na4P2O7 0.1 ml H20 7.3 ml HNTG* 10 ml.
(4). After drug incubation for two hours, transfer 10 ul/well of 200 nM IGF-1 Ligand in PBS to the cells (Final Conc=20 nM), and incubate at 5% CO2 at 37° C. for 10 minutes.
(5). Remove media and add 100ul/well HNTG* and shake for 10 minutes. Look at cells under microscope to see if they are adequately lysed.
(6). Use a 12-channel pipette to scrape the cells from the plate, and homogenize the lysate by repeat aspiration and dispense. Transfer all the lysate to the antibody coated ELISA plate [V.2.(2)], and shake for 1 hour.
(7). Remove the lysate, wash the plate, transfer anti-pTyr (1:3,000 with TBST) 100 ul/well, and shake for 30 minutes.
(7). Remove anti-pTyr, wash the plate, transfer detection antibody (1:3,000 with TBST) 100 ul/well, and shake for 30 minutes.
(8). Remove detection antibody, wash the plate, and transfer fresh ABTS/H2O2 (1.2 ul H2O2 to 10 ml ABTS) 100 ul/well to the plate to start color development.
(9). Measure OD (410 nm) in Dynatec MR5000, which is connected to Ingres.

[2] = test system: HER2; assay: HER2 whole cell kinase ELISA (second HER2 column of Table 1); format: cell-based; details: cell line not given
Excerpt: The following examples illustrates the ability of the exemplary compounds to inhibit receptor tyrosine kinases, such as HER2 and/or EGFR. The following target cells were used for cellular kinase assays: NIH3T3 clone C7 (Honegger et al., supra) engineered to over-express human EGF receptor; NIH3T3 cells engineered to over-express a chimeric receptor containing the EGFR extracellular domain and the HER2 intracellular kinase domain; the human mammary carcinoma line BT474 (ATCC HTB2) expressing HER2; and the human glioblastoma line U1242 that expresses PDGFR-beta. Growth assays were carried out using human mammary epithelial SKBR3 (ATCC HTB30) cells (SKBR3 cells over-express HER2), SKOV3 (AT(D(D HTB77) human ovarian cancer cell line (SKOV3 cells also over-express HER2), A431 cells (A431 cells over-express EGFR) MCF7 human breast carcinoma cells, MCF7 cells overexpressing the HER2 kinase (MCF7-HER2), NIH3T3 cells, and NIH3T3 cells overexpressing the HER2 kinase (3T3-HER2. EGFR-HER2 Chimeric Recetor HER2 kinase activity (EGFR-3T3) in whole cells was measured as described below: HER2-ELISA HER2-BT474 assays measuring whole cell HER2 activity was carried out as described below: 1. The cell line used in this assay is BT-474 (ATCC HBT20), a human breast tumor cell line which expresses high levels of HER2 kinase. 2. BT-474 is grown in an incubator with 5% CO2 at 37° C. The growth media is RPMI+10% FBS+GMS-G (Gibco supplement)+Glutamine. 3. A monoclonal anti-HER2 antibody is used in ELISA. (a) Grow BT474 cells in tissue culture dishes (10 cm, Corning 25020-100) to 80-90% confluence and collect using Trypsin-EDTA (0.25%, GIBCO). (b) Resuspend the cells in fresh medium and transfer to 96-well tissue culture plates (Corning, 25806-96) at about 25,000-50,000 cells/well (100 μl/well). Incubate the cells in 5% CO2 at 37° C. overnight. (a) Coat the ELISA plate (Corning 25805-96) with anti HER2 antibody at 0.5 μg/well in 150 μl PBS overnight at 4.sunburst. C., and seal with parafilm. The antibody coated plates can be used up to 2 weeks, when stored at 4° C. (b) On the day of use, remove the coating solution, replace with 200 μl of Blocking Buffer, shake the plate, and then remove the blocking buffer and wash the plate just before adding lysate. (a) TBST the drugs in serum-free condition. Before adding drugs, the old media (b) Dilute drug stock (in 100% DMSO) 1:10 with RPMI, and transfer 10 μl/well of this solution to the cells to achieve a final drug DMSO concentration at 1%. Incubate the cells in 5% CO2 at 37° C. (d) After drug preincubation for two hours remove all the solution from the plate, transfer HNTG* 100 μl/well to the cells, and shake for 10 minutes. (e) Use a 12-channel pipette to scrape the cells from the plate, and homogenize the lysate by repeat aspiration and dispensing. Transfer all the lysate to the ELISA plate and shake for 1 hour. (f) Remove the lysate, wash the plate, add anti-pTyr (1:3,000 with TBST) 100 μl/well, and shake for 30 minutes. (g) Remove anti-pTyr, wash the plate, add goat anti-rabbit IgG conjugated antibody (1:5,000 with TBST) 100 μl/well, and shake for 30 minutes. (h) Remove anti-rabbit IgG antibody, wash the plate, and add fresh ABTS/H2 O2 (1.2 μl H2 O2 to 10 ml ABTS) 100 l/we1l to the plate to start color development, which usually takes 20 minutes. (i) Measure OD 410 nm, Dynatec MR5000.

T1 sequence (P08069 31-1367): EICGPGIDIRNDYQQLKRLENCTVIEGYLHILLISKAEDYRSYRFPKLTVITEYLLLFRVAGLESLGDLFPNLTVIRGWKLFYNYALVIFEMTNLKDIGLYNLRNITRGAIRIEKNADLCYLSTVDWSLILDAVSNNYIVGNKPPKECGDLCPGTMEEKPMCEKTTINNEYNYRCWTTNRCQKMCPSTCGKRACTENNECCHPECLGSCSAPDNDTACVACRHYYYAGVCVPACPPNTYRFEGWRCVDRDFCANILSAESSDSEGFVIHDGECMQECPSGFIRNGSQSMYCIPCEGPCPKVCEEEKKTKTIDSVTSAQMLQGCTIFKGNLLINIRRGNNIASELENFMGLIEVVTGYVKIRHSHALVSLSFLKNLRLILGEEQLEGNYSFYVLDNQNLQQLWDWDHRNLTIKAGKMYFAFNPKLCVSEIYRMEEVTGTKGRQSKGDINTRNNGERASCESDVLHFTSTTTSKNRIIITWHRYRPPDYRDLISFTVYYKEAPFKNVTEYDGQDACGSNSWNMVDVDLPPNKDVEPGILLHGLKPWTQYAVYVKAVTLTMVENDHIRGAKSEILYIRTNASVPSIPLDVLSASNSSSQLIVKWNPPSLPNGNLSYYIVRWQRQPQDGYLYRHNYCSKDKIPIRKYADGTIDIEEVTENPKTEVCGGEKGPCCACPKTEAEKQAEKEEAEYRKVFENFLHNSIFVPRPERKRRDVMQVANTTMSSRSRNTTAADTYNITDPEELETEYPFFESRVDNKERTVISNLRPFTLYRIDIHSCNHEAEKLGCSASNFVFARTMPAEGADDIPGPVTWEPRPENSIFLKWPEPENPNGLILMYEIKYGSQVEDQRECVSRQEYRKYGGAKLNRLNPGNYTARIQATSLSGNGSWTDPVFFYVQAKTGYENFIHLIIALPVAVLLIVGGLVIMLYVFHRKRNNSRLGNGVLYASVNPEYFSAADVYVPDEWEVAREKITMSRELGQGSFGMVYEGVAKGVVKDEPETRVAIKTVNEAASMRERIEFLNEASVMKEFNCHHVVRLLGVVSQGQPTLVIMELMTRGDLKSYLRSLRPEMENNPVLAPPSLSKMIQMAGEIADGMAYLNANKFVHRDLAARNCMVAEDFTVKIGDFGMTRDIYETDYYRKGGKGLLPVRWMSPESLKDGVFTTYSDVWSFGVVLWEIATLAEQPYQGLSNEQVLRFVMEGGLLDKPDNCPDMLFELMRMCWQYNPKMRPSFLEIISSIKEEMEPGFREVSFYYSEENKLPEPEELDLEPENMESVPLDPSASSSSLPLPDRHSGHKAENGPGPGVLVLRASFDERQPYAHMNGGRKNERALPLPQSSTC

## CCOC(=O)c1cnc2ccc(C(F)(F)F)cc2c1Nc1ccc(C#N)cc1 [Compound A725, 4-(4-Cyanophenylamino)-3-ethoxycarbonyl-6-trifluoromethylquinoline]
[1]
  IC50: > 100 µM
[2]
  IC50: > 100 µM

## CCOC(=O)c1cnc2ccc(C(F)(F)F)cc2c1NCc1cccc(C(F)(F)F)c1 [Compound A718, 3-Ethoxycarbonyl-4-(3-trifluoromethylbenzylamino)-6-trifluoromethylquinoline]
[1]
  IC50: > 100 µM
[2]
  IC50: > 50 µM

## CCOC(=O)c1cnc2c(F)ccc(F)c2c1Sc1ccc(Cl)cc1 [Compound A732, 4-(4-Chlorophenylmercapto)-5,8-difluoro-3-ethoxycarbonylquinoline]
[1]
  IC50: > 100 µM

## CCOC(=O)c1cnc2ccc(C(F)(F)F)cc2c1Nc1ccc(Br)cc1 [Compound A727, 4-(4-Bromophenylamino)-3-ethoxycarbonyl-6-trifluoromethylquinoline]
[1]
  IC50: > 100 µM
[2]
  IC50: > 10 µM

## CCOC(=O)c1cnc2c(F)ccc(F)c2c1Sc1cccc(C(F)(F)F)c1 [Compound A713, 3-Ethoxycarbonyl-5,8-difluoro-4-(3-trifluoromethylphenylmercapto)quinoline]
[1]
  IC50: > 100 µM
[2]
  IC50: 36 µM

## CCOC(=O)c1cnc2ccc(C(F)(F)F)cc2c1Nc1ccccc1C(F)(F)F [Compound A720, 3-Ethoxycarbonyl-4-(2-trifluoromethylphenylamino)-6-trifluoromethylquinoline]
[1]
  IC50: > 100 µM
[2]
  IC50: > 100 µM

## CCOC(=O)c1cnc2c(F)cc(F)cc2c1Sc1ccc(Cl)cc1 [Compound A730, 4-(4-Chlorophenylmercapto)-6,8-difluoro-3-ethoxycarbonylquinoline]
[1]
  IC50: > 50 µM

## CCOC(=O)c1cnc2ccc(C(F)(F)F)cc2c1Nc1ccc(C(F)(F)F)cc1 [Compound A722, 3-Ethoxycarbonyl-4-(4-trifluoromethylphenylamino)-6-trifluoromethylquinoline]
[1]
  IC50: > 100 µM
[2]
  IC50: > 100 µM

## CCOC(=O)c1cnc2cc(Cl)c(F)cc2c1Sc1ccc(Cl)cc1 [Compound A731, 7-Chloro-4-(4-chlorophenylmercapto)-6-fluoro-3-ethoxycarbonylquinoline]
[1]
  IC50: > 50 µM

## CCOC(=O)c1cnc2ccc(C(F)(F)F)cc2c1NCc1ccccc1C(F)(F)F [Compound A717, 3-Ethoxycarbonyl-4-(2-trifluoromethylbenzylamino)-6-trifluoromethylquinoline]
[1]
  IC50: > 100 µM
[2]
  IC50: > 100 µM

## CCOC(=O)c1cnc2ccc(C(F)(F)F)cc2c1Nc1cccc(C(F)(F)F)c1 [Compound A721, 3-Ethoxycarbonyl-4-(3-trifluoromethylphenylamino)-6-trifluoromethylquinoline]
[1]
  IC50: > 100 µM
[2]
  IC50: > 100 µM

## CCOC(=O)c1cnc2ccc(C(F)(F)F)cc2c1Nc1ccccc1C#N [Compound A723, 4-(2-Cyanophenylamino)-3-ethoxycarbonyl-6-trifluoromethylquinoline]
[1]
  IC50: > 100 µM
[2]
  IC50: > 10 µM

## CCOC(=O)c1cnc2ccc(C(F)(F)F)cc2c1NCc1ccc(C(F)(F)F)cc1 [Compound A719, 3-Ethoxycarbonyl-4-(4-trifluoromethylbenzylamino)-6-trifluoromethylquinoline]
[1]
  IC50: > 100 µM
[2]
  IC50: > 100 µM

## CCOC(=O)c1cnc2ccc(C(F)(F)F)cc2c1Nc1cccc(Cl)c1 [Compound A728, 4-(3-Chlorophenylamino)-3-ethoxycarbonyl-6-trifluoromethylquinoline]
[1]
  IC50: > 100 µM
[2]
  IC50: > 75 µM

## CCOC(=O)c1cnc2ccc(C(F)(F)F)cc2c1Nc1cccc(Br)c1 [Compound A716, 4-(3-Bromophenylamino)-3-ethoxycarbonyl-6-trifluoromethylquinoline]
[1]
  IC50: > 100 µM
[2]
  IC50: > 100 µM

## CCOC(=O)c1cnc2ccc(C(F)(F)F)cc2c1Nc1ccc(Cl)cc1 [Compound A729, 4-(4-Chlorophenylamino)-3-ethoxycarbonyl-6-trifluoromethylquinoline]
[1]
  IC50: > 100 µM
[2]
  IC50: > 100 µM

## CCOC(=O)c1cnc2ccc(C(F)(F)F)cc2c1Nc1ccc(OC)c(OC)c1 [Compound A726, 3-Ethoxycarbonyl-4-(3,4-dimethoxyphenylamino)-6-trifluoromethylquinoline]
[1]
  IC50: > 100 µM
[2]
  IC50: > 100 µM
